# In article PMC3779154, “Identification of Therapeutic Candidates for Chronic Lymphocytic Leukemia from a Library of Approved Drugs” (PLoS ONE, 2013):
# Counter-ions that a name gives are not always drawn. Like-named read-outs stand apart in the source and are kept apart here. Starred links: 1 amine or outer side, 2 acyl side, 3 side chain; linkers in the order of their positions; H or OH if unused. Positions of bridges follow the written chain, without caps; N, C: chain ends. Non-standard residues stand in square brackets, D forms with d. Residues, ends and D or L forms follow the SMILES beside them. Chains are numbered I, II in the order given. Actinocin(9to1) = Cc1c2oc3c(C)ccc(C(=O)[*:1])c3nc-2c(C(=O)[*:2])c(N)c1=O; NMeV = CN[C@H](C(=O)O)C(C)C; Sar = CNCC(=O)O
# What was measured:
# [1] = test system: fresh CLL patient lymphocytes; test: cells; conditions: Homo sapiens
# Protocol: (§1) Cell viability was measured using a luciferase-based ATP quantitation assay (CellTiter-Glo^TM, Promega). The intracellular ATP content indicates the number of viable (i.e. metabolically competent) cells after compound treatment. […] After that, a total of 23 nL of compounds at 8 selected concentrations from the NPC library or positive control (10 mM stock of doxorubicin hydrochloride) in DMSO was transferred to each well of the assay plate using a pintool (Kalypsys, San Diego, CA), and the plates were further incubated at 37 °C with 5% CO2 for 24 hours to allow the reaction. Then 4µL of CellTilter-Glo luminescent substrate mix was added to each well. The plate was incubated at room temperature for 15 minutes. The plates were measured on a ViewLux plate reader (PerkinElmer) with clear filter. […] The test volume of 5,000 cells/4 μL/well was selected as the final assay condition in cell density tests based on the assay performance statistics: signal/background ratio, coefficient of variation and Z’-factor (data not shown).
# (§2) Fresh primary cells were also obtained from two unaffected normal donors and seven CLL patients whose blood samples were collected within hours of apheresis and which had not been included in our previous experiments.
# primary CLL cells = test: qHTS luminescent ATP cell viability assay (CellTiter-Glo), primary screen, frozen CLL patient cells; format: cell-based, human; conditions: for cytotoxicity across CLL cell samples: six CLL patient samples, primary screen; for IC50 / Emax: Homo sapiens, CLL cell; for Emax: CLL cells, 24 h, normalized to doxorubicin control, read-out: efficacy (maximal response)
# Text: Lymphocytes from 13 CLL treatment naïve patients (Table 1 ) and 5 normal donors were obtained by lymphapheresis with written informed consent and isolated by gradient centrifugation using Lymphocyte Separation Medium (MP Biomedicals, Solon, OH) and used fresh or cryopreserved in liquid nitrogen in 10% dimethyl sulfoxide, 90% FCS. CLL patients were consented on the institutional review board (IRB) approved at the National Heart, Lung, and Blood Institute (NHLBI, Office of Clinical Affairs, Bldg 10, CRC. Room 6-5140, Bethesda, Maryland 20892-1608) with protocol 04-H-0012 and samples from normal donors were collected by the Department of Transfusion Medicine, National Institutes of Health (NIH). This study was approved by the IRB mentioned above. Fresh cells were temporally placed on ice and plated for screening within 3 hrs of apheresis. Frozen cells were thawed the night before the assay and incubated in T175 flask in AIM V medium to recover overnight. Analysis of IGHV gene status was performed as described. CLL samples were cultured in AIM V serum free medium (Gibco-Invitrogen, Long Island, NY).
# Compound formatting and qHTS were performed as described previously. The final concentration of the NPC compounds in the 4 µL assay volume ranged from 57 µM to 0.7 nM in 1:5 dilution steps. The positive control plate format was as follows: columns 1 and 3, DMSO only; column 2, doxorubicin, a known cytotoxic chemotherapy agent in a 1:2 dilution series from 10 µM to 5 nM in DMSO; and column 4, doxorubicin at 10 µM in DMSO.
# To determine compound activity in the qHTS assay, the concentration-response data for each sample was plotted and modeled by a four parameter logistic fit yielding IC50 and efficacy (maximal response) values as previously described. Data normalization and curve fitting were performed using in-house informatics tools. Briefly, raw plate reads for each titration point were first normalized relative to the positive control compound (100%) and DMSO-only wells (basal, 0%), and then corrected by applying a pattern correction algorithm using compound-free control plates (i.e., DMSO-only plates) at the beginning and end of the NPC compound plate stack. […] In brief, Class 1.1 and 1.2 were the highest-confidence complete CRCs containing upper and lower asymptotes with efficacies ≥ 80% and < 80%, respectively. Class 2.1 and 2.2 were incomplete CRCs having only one asymptote with efficacy ≥ 80% and < 80%, respectively.
# Compounds from the primary qHTS screen were further classified into three categories according to the quality of curve fit and efficacy.
# [2] = test system: lymphocytes from normal donors; test: cells; conditions: Homo sapiens, Lymphocyte, read-out: IC50 normal
# Protocol: (§3) Cell viability was measured using a luciferase-based ATP quantitation assay (CellTiter-Glo^TM, Promega). The intracellular ATP content indicates the number of viable (i.e. metabolically competent) cells after compound treatment. Four µL of CLL cells resuspended in AIM medium at 1,330,000 cells/ml, were dispensed into each well of white, solid bottom, 1536-well tissue culture–treated plates using a Multidrop-Combi dispenser and incubated overnight. After that, a total of 23 nL of compounds at 8 selected concentrations from the NPC library or positive control (10 mM stock of doxorubicin hydrochloride) in DMSO was transferred to each well of the assay plate using a pintool (Kalypsys, San Diego, CA), and the plates were further incubated at 37 °C with 5% CO2 for 24 hours to allow the reaction. Then 4µL of CellTilter-Glo luminescent substrate mix was added to each well. The plate was incubated at room temperature for 15 minutes. The plates were measured on a ViewLux plate reader (PerkinElmer) with clear filter.
# (§4) These compounds were then re-tested in the cell viability assay using 12 point titrations with concentration ranging from 57 µM to 0.3 nM with 1:3 dilution.
# as §2
# [3] = test system: lymphocytes from normal donors; conditions: for potency shift between CLL and normal donor samples: fresh cells, normal IC50 vs CLL IC50; for IC50: read-out: IC50 normal, average of 2 normal donors, fresh, Figure 5; for difference in efficacy between CLL and unaffected donor samples: at 19 µM and 57 µM, the two highest testing concentrations
# Protocol: as §3, §4, §2
# [4] = test system: fresh CLL patient lymphocytes
# Protocol: as §1, §2
# [5] = test system: ME-180 human cervical carcinoma cell line; test: Cell viability assay, ME-180 cells (NPC library profiling)
# Text: Based on the definition of actives, inactives and inconclusive mentioned above, compounds were further clustered hierarchically using Spotfire DecisionSite 8.2 (Spotfire Inc., Cambridge, MA) based on their activity outcomes from the primary screen across a wide variety of cell viability assays against different cell lines or primary patient cells. Each compound was converted into an integer which represents its activity outcome in each cell viability assay. […] Integer 2 represents compounds in “inconclusive” category which is corresponding to light red in the heat map. […] Compounds not tested in the assay were labeled as 4 and shown as grey in the heat map.
# caspase-3/7 = test: Caspase-Glo 3/7 activation assay in CLL samples; format: cell-based, human; conditions: read-out: EC50 caspase-3/7 activity
# Protocol: The effect of selected compounds on caspase activity was measured using a homogeneous luminescent method (Caspase-Glo® 3/7, 8 and 9 kits, Promega, Madison, WI). Briefly in this assay, caspase induced by cells cleaves a pro-luciferin substrate where a tetrapeptide caspase substrate - DEVD (asp-glu-val-asp) is cleaved to free aminoluciferin, which can be used as a substrate by luciferase yielding a bioluminescent signal. The luminescent signal is proportional to the amount of caspase activity present in the cells. Cells were dispensed in culture medium at 5,000/cells/5uL/well in 1536-well white/solid-bottom assay plates. The cells were incubated for overnight at 37°C. The compounds (23nL/well) were added via the pin tool. The treated cells were further incubated for 24 h at 37°C, followed by the addition of the Caspase-Glo 3/7, 8 or 9 reagents at 5uL/well. After a 30 min incubation at room temperature, the luminescence intensity of the assay plates was measured using a ViewLux Plate Reader. The caspase activity was normalized to DMSO control.
# [6] = Lymphocyte, 24 h, confirmation assay, fresh CLL samples, Table S1
# [7] = Lymphocyte, read-out: IC50 CLL, average of cells from 7 CLL patients, fresh, Figure 5
# [8] = read-out: IC50 CLL, average of cells from 7 CLL patients, fresh, Figure 5
# [9] = confirmation assay, fresh CLL samples, 24 h, Table S1
molecule,measurement,setting,value
CC[C@@]1(O)C[C@H](O[C@H]2C[C@H](N(C)C)[C@H](O[C@H]3C[C@H](O)[C@H](O[C@H]4CCC(=O)[C@H](C)O4)[C@H](C)O3)[C@H](C)O2)c2c(cc3c(c2O)C(=O)c2c(O)cccc2C3=O)[C@H]1C(=O)OC [aclarubicin hydrochloride],IC50,"[1]; Lymphocyte, 24 h",< 1 µM
"Cc1c2oc3c(C)ccc(C(=O)N[C@@H]4C(=O)N[C@H](C(C)C)C(=O)N5CCC[C@H]5C(=O)N(C)CC(=O)N(C)[C@@H](C(C)C)C(=O)O[C@@H]4C)c3nc-2c(C(=O)N[C@@H]2C(=O)N[C@H](C(C)C)C(=O)N3CCC[C@H]3C(=O)N(C)CC(=O)N(C)[C@@H](C(C)C)C(=O)O[C@@H]2C)c(N)c1=O [actinomycin D] (I: T[dV]P[Sar][NMeV] / II: T[dV]P[Sar][NMeV]; ester I:1-I:C, II:1-II:C; linker I:N-II:N via Actinocin(9to1))",IC50,"[1]; Lymphocyte, 24 h",< 1 µM
Cn1c(CCCC(=O)O)nc2cc(N(CCCl)CCCl)ccc21 [bendamustine],IC50,"[1]; Lymphocyte, 24 h",12 to 30 µM
CC(C)C[C@H](NC(=O)[C@H](Cc1ccccc1)NC(=O)c1cnccn1)B(O)O [bortezomib],cytotoxicity across CLL cell samples,primary CLL cells,cytotoxicity in all CLL cell samples at similar concentrations
same,IC50,[1]; [6],< 1 µM
CO[C@@H]1[C@H](O)C[C@@H](O[C@@H]2C[C@H](Oc3cc4cc5c(c(O)c4c(O)c3C)C(=O)[C@@H](O[C@H]3C[C@@H](O[C@H]4C[C@@H](O[C@H]6C[C@](C)(O)[C@@H](OC(C)=O)[C@H](C)O6)[C@H](O)[C@@H](C)O4)[C@H](O)[C@@H](C)O3)[C@H]([C@H](OC)C(=O)[C@@H](O)[C@@H](C)O)C5)O[C@H](C)[C@@H]2OC(C)=O)O[C@@H]1C [chromomycin A3],IC50,"[1]; Lymphocyte, 24 h",< 1 µM
COc1cccc2c1C(=O)c1c(O)c3c(c(O)c1C2=O)C[C@@](O)(C(=O)CO)C[C@@H]3O[C@H]1C[C@H](N)[C@H](O)[C@H](C)O1 [doxorubicin],IC50,[2],14.4 µM
same,IC50,[1]; [7],4.5 µM
same,potency shift between CLL and normal donor samples,[3],3 fold
Nc1nc(F)nc2c1ncn2[C@@H]1O[C@H](CO)[C@@H](O)[C@@H]1O [fludarabine],IC50,[4]; [8],12200 nM
same,IC50,"[4]; read-out: potency, comparable cell killing against CLL cells and normal lymphocytes",12000 nM
same,IC50,[3],9.4 µM
CC(=O)[C@]1(O)Cc2c(O)c3c(c(O)c2[C@@H](O[C@H]2C[C@H](N)[C@H](O)[C@H](C)O2)C1)C(=O)c1ccccc1C3=O [idarubicin],IC50,primary CLL cells; CLL patient #4705,3200 nM
same,IC50,primary CLL cells; CLL patient #4789,100 nM
same,IC50,primary CLL cells; CLL patient #4808,100 nM
same,potency shift,primary CLL cells; patient #4705 compared to #4789 and #4808,32 fold
same,IC50,[1]; [6],< 1 µM
CN(C)c1ccc(C(=C2C=CC(=[N+](C)C)C=C2)c2c(O)c(S(=O)(=O)[O-])cc3cc(S(=O)(=O)[O-])ccc23)cc1.[Na+] [lissamine green B],cytotoxicity in ME-180 cells,[5],prominent cytotoxicity
O=C1c2c(O)ccc(O)c2C(=O)c2c(NCCNCCO)ccc(NCCNCCO)c21 [mitoxantrone],IC50,[2],7 µM
same,IC50,"[1]; CLL cell, read-out: potency, comparable cell killing against CLL cells and normal lymphocytes",6 µM
same,IC50,[1]; [6],~5.4 µM
same,IC50,[1]; [7],7.2 µM
COC(=O)C[C@](O)(CCCC(C)(C)O)C(=O)O[C@@H]1C(OC)=C[C@]23CCCN2CCc2cc4c(cc2[C@H]13)OCO4 [omacetaxine mepesuccinate],IC50,[1]; [6],< 1 µM
CC(=O)[O][Hg][c]1ccccc1 [phenylmercuric acetate],cytotoxicity in ME-180 cells,[5],prominent cytotoxicity
COc1cc([C@@H]2c3cc4c(cc3[C@H](O)[C@H]3COC(=O)[C@H]23)OCO4)cc(OC)c1OC [podofilox],efficacy (cytotoxicity),[4]; human,> 60%
same,IC50,[4]; [8],< 1000 nM
same,IC50,"[4]; read-out: IC50 CLL, average of cells from 7 CLL patients, fresh, Figure 5, listed as Podofilox",60 nM
same,IC50,[2],0.15 µM
same,EC50,"caspase-3/7; Homo sapiens, 24 h",< 100 nM
same,cytotoxicity on lymphocytes derived from unaffected donors,[3],almost no cytotoxicity
same,difference in efficacy between CLL and unaffected donor samples,[3],over 40%
same,decreased efficacy against B-cells from normal donors,[3]; at the testing concentration of 1.7 µM,approximately 40%
same,potency shift between CLL and normal donor samples,[3],about 3 fold
C[n+]1cc2c3c(ccc2c2ccc4cc5c(cc4c21)OCO5)OCO3 [sanguinarine],cytotoxicity in ME-180 cells,[5],prominent cytotoxicity
COc1cc([C@@H]2c3cc4c(cc3[C@@H](O[C@@H]3O[C@@H]5CO[C@@H](c6cccs6)O[C@H]5[C@H](O)[C@H]3O)[C@H]3COC(=O)[C@H]23)OCO4)cc(OC)c1O [teniposide],Emax,primary CLL cells,< 80%
C[C@H]1CC[C@]2(NC1)O[C@H]1C[C@H]3[C@@H]4CC[C@H]5C[C@@H](O[C@@H]6O[C@H](CO)[C@H](O[C@@H]7O[C@H](CO)[C@@H](O)[C@H](O[C@@H]8OC[C@@H](O)[C@H](O)[C@H]8O)[C@H]7O[C@@H]7O[C@H](CO)[C@@H](O)[C@H](O)[C@H]7O)[C@H](O)[C@H]6O)CC[C@]5(C)[C@H]4CC[C@]3(C)[C@H]1[C@@H]2C [tomatine],cytotoxicity in ME-180 cells,[5],prominent cytotoxicity
COc1cc2c(cc1O)CCN[C@]21CS[C@@H]2c3c(OC(C)=O)c(C)c4c(c3[C@H](COC1=O)N1[C@@H]2[C@H]2c3c(cc(C)c(OC)c3O)C[C@@H]([C@@H]1O)N2C)OCO4 [trabectedin],cytotoxicity across CLL cell samples,primary CLL cells,cytotoxicity in all CLL cell samples at similar concentrations
same,IC50,[1]; [6],< 1 µM
Cc1cc(-c2ccc(/N=N/c3c(S(=O)(=O)O)cc4cc(S(=O)(=O)O)cc(N)c4c3O)c(C)c2)ccc1/N=N/c1c(S(=O)(=O)O)cc2cc(S(=O)(=O)O)cc(N)c2c1O [trypan blue],cytotoxicity in ME-180 cells,[5],prominent cytotoxicity
CC[C@]1(O)C[C@@H]2CN(CCc3c([nH]c4ccccc34)[C@@](C(=O)OC)(c3cc4c(cc3OC)N(C)[C@H]3[C@@](O)(C(=O)OC)[C@H](OC(C)=O)[C@]5(CC)C=CCN6CC[C@]43[C@@H]65)C2)C1 [vinblastine],fold more potent in CLL sample #4808 than #4399,primary CLL cells; CLL sample #4808 vs #4399,> 100 fold
same,Emax,primary CLL cells,> 80%
CC[C@]1(O)C[C@H]2CN(CCc3c([nH]c4ccccc34)[C@@](C(=O)OC)(c3cc4c(cc3OC)N(C=O)[C@H]3[C@@](O)(C(=O)OC)[C@H](OC(C)=O)[C@]5(CC)C=CCN6CC[C@]43[C@@H]65)C2)C1 [vincristine],IC50,[4]; [9],< 1000 nM
ivermectin,cytotoxicity in ME-180 cells,[5],prominent cytotoxicity
plicamycin,IC50,[4]; [9],< 1000 nM
same,IC50,[4]; [8],750 nM
same,EC50,"caspase-3/7; CLL samples, 24 hours",430 nM
same,difference in efficacy between CLL and unaffected donor samples,[3],over 40%
same,potency shift between CLL and normal donor samples,[3],about 3 fold
same,IC50,[3],0.84 µM
same,decreased efficacy to normal B cells,[3]; versus CLL cells,over 40%
